Columns and labels:
[1] = tested on: GCNF single point mutations F284A, Y336F and F361A with SMRT ID2 peptide; assay: FP SMRT ID2 recruitment with GCNF point mutants; type: biochemical, human; settings: Y336F and F361A vs wild-type
Protocol: FP Assay. Fluorescence polarization (FP) assays were performed in triplicate on a 384-well Corning 3820 black opaque plate using a Biotek Synergy Neo2 HTS multimode microplate reader at excitation and emission wavelengths of 485 nm and 538 nm, respectively. Data were analyzed and plotted using GraphPad Prism as mean±SEM.
For the FP ligand titration assay, the aforementioned N-terminus fluorescein-tagged corepressor peptides were diluted to 500 nM from a 100 μM DMSO stock in the presence of 20 μM GCNF LBD and ligand concentration points 30, 20, 13, 9, 6, 4, 2.6, 1.7 and 0 μM in assay buffer containing 50 mM HEPES (pH 7.5), 50 mM KCl, 5 mM TCEP, 0.5 mM EDTA and 0.005% Tween20. The relative polarization was plotted against log of ligand concentration (μM) and the half maximal effective concentration (EC50) values were derived via sigmoidal fit.

[2] = target: T1, LRH-1 (NR5A2) LBD (Homo sapiens, UniProt O00482); assay: DSF specificity assay, LRH-1; type: binding
T1 construct: human LRH-1 (NR5A2) LBD (residues 291-541); hexahistidine tag with 3C protease site; made in house; host or cells: E. coli BL(21) DE3
T1 sequence (O00482 291-541): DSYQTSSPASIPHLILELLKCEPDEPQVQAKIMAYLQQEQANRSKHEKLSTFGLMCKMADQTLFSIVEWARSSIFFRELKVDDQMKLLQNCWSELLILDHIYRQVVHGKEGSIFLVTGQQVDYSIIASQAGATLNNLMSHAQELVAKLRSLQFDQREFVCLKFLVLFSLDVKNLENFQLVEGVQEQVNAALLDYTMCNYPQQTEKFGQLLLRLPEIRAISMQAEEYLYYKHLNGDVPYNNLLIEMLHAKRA
Protocol: (§1) Protein Expression and Purification. Human GCNF (NR6A1) LBD (residues 248-480) and mutants F284A/F361A, human LRH-1 (NR5A2) LBD (residues 291-541), human RXRα LBD (residues 223-462), human COUP-TF I LBD (residues 184-410) and human SF-1 LBD (residues 219-461) were subcloned in pET45b(+) plasmid (Novagen) were expressed in E. coli BL(21) DE3 cells in terrific broth with 0.1 mg/mL ampicillin as 3C protease-cleavable hexahistidine-tagged fusion proteins. The bacterial culture was grown at 37° C. to an optical density of 0.8 to 1.0 at 600 nm. Protein expression was induced by adding 1 mM IPTG and was allowed to proceed for 14 h at 22° C. […]
(§2) DSF Assay. […] A total of 450 compounds (Life Chemicals) previously selected from a nuclear-receptor-biased library targeting REV-ERB were analyzed. Thermal stability was assessed on a Quantstudio 6 instrument (Biosystems) by ramping the temperature from 25° C. to 95° C. at 0.05° C./s and protein melt shifts were subsequently quantified by Boltzmann-derived melting temperature (Tm) using the Protein Thermal Shift (ThermoFisher) software. […]

[3] = target: T2, GCNF LBD F361A (Homo sapiens, UniProt Q15406, F361A); assay: DSF of GCNF LBD mutant F361A; type: binding; settings: 20 μM ligand
T2 construct: Human GCNF (NR6A1) LBD (residues 248-480) and mutants F284A/F361A; hexahistidine tag with 3C protease site; made in house; host or cells: E. coli BL(21) DE3
T2 sequence (Q15406 248-480 F361A): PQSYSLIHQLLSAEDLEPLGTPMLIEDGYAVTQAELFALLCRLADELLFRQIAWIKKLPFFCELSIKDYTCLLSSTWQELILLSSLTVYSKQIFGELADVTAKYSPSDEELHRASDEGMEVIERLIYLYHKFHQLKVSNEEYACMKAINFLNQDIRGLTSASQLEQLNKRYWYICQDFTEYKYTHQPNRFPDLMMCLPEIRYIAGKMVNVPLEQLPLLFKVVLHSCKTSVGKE
Protocol: as §1, §2

[4] = tested on: i3 neurons differentiated from iPSCs; assay: qPCR of pluripotency and neuronal markers after iPSC differentiation; type: cell-based; settings: qPCR upon ligand treatment
Protocol: qPCR using iPSC samples and differentiated neurons samples to make sure the primers worked. These primers include: • Housekeeping genes for normalization: CYCLO, 36B4, GAPDH • Stem cell markers: OCT4, SOX2, NANOG, REX1 • Neuronal markers: MAP2, MAPT, TUBB3, NCAM1
iPSC Differentiation to Neurons. For growing neurons from iPSC cells, the method described by Femandopulle were employed (Femandopulle et al., 2018). Briefly, cells were treated with doxycycline to turn on expression of Neurogenin-2 (NGN2), which irreversibly sets these cells on the path of neuronal differentiation. The cells were treated with doxycycline for 3 days (changing media every day), and then re-plate the cells onto new plates coated with PLO. For each time point, 21 samples were prepared (DMSO and ligands 34 and 80 at different concentrations, in triplicate).
An overview of the experiment timeline is shown as well: • Day 0: Plate iPSC on matrigel-coated 12-well plates • Day 2: Treat cells −/+ ligands in iPSC media • Day 3: Refeed cells induction media +Doxycycline −/+ ligands to start neuronal differentiation (Day 0 of differentiation) • Day 4: Refeed cells induction media +Doxycycline −/+ ligands (Day 1 of differentiation) • Day 5: Refeed cells induction media +Doxycycline −/+ ligands (Day 2 of differentiation) • Day 6: Take pictures; Refeed cells neuronal media −/+ ligands (Day 3 of differentiation) • Day 7: Collect cells for RNA/qPCR (Day 4 of differentiation)

Cc1ccc(-n2ncc3c(N4CCOCC4)nc(NCc4ccco4)nc32)cc1 [Ligand 34, N-[(furan-2-yl)methyl]-1-(4-methylphenyl)-4-(morpholin-4-yl)-1H-pyrazolo[3,4-d]pyrimidin-6-amine]
SMRT-ID2 peptide recruitment by GCNF mutants [1]: substantially weakened corepressor peptide recruitment
change of Tm of LRH-1 LBD [2]: did not significantly change
effect of mutation F361A on ΔTm compared to WT [3]: substantially decreased the ΔTm
expression of pluripotency marker Sox2 [4]: substantially decreased

O=C(Cn1cc(S(=O)(=O)c2ccccc2)c2ccccc21)N1CCc2ccccc21 [Ligand 80, 2-[3-(benzenesulfonyl)-1H-indol-1-yl]-1-(2,3-dihydro-1H-indol-1-yl)ethan-1-one]
SMRT-ID2 peptide recruitment by GCNF mutants [1]: does not affect recruitment
change of Tm of LRH-1 LBD [2]: did not significantly change
effect of mutation F361A on ΔTm compared to WT [3]: completely abrogated the interaction
expression of neuronal marker MAPT [4]: substantially increased
expression of pluripotency marker Sox2 [4]: substantially decreased
